Results on four molecules are retold here after patent US11466008B2, “Co-crystals of neflamapimod (VX-745)” (EIP Pharma, LLC, priority 2017, dated 2022).

The nature of data set [1]: Dissolution study in water at ambient temperature (HPLC). The format is physicochemical. Here is the method: HPLC analyses were carried out on an Agilent 1100 series instrument equipped with a UV detector using the following materials and operating parameters:
Dissolution studies were carried out for VX-745 at ambient temperature using water, as described by the HPLC Analysis protocol described above.
Dissolution studies were carried out for the CC-6 at ambient temperature using water, as described by the HPLC Analysis protocol described above.
Dissolution studies were carried out for the CC-11 at ambient temperature using water, as described by the HPLC Analysis protocol described above.

Data set [2] is described as follows: Dissolution study in FaSSIF at ambient temperature (HPLC; XRPD of remaining solids). The conditions noted are these: for ending solubility / peak solubility: medium: FaSSIF; for ending solubility / peak solubility / Concentration: ambient temperature; for Concentration: FaSSIF, 3 hrs.
Text: (§1) The first dissolution medium tested was fasted state simulated intestinal fluid (FaSSIF) at ambient temperature. […] The second dissolution medium tested was fed state simulated intestinal fluid (FeSSIF) at ambient temperature.
(§2) Upon the completion of each experiment, the remaining solid was recovered and analyzed by XRPD.
(§3) High-Performance Liquid Chromatography (HPLC) Analyses.
The nature of data set [3]: Dissolution study in FeSSIF at ambient temperature (HPLC; XRPD of remaining solids). To be noted: for Concentration: FeSSIF; for Concentration / ending solubility / peak solubility: ambient temperature; for ending solubility / peak solubility: medium: FeSSIF.
Text: as §1, §2, §3
A short description of data set [4]: Estimated solubility of VX-745 in solvents (solvent aliquot addition, visual inspection). To be noted: thermodynamic from solid. Type of data set: physicochemical. Here is the method:
Solubilities of VX-745 in several solvents were estimated. The experiments were carried out by adding test solvents in aliquots to weighed portions of solid. Whether dissolution had occurred was judged by visual inspection after addition of each solvent aliquot. Solubility numbers were calculated by dividing the total amount of solvent used to dissolve the sample by the weight of the sample. The actual solubilities may be greater than the numbers calculated because of the use of solvent aliquots that were too large or because of slow dissolution rates. […] The solubility number is expressed as “greater than or equal to” if dissolution occurred on addition of the first solvent aliquot.

Where [5] appears, read: FaSSIF (fasted state simulated intestinal fluid), fassif, thermodynamic from solid.
[6] abbreviates: FeSSIF (fed state simulated intestinal fluid), fessif, thermodynamic from solid.

In brackets after ≈: the same amount, converted by molar mass. A value given as a limit tells only on which side of the number the result lay.

Usually Solubility stands for the dissolved amount per volume that the medium holds. As for `O=C(O)CCCC(=O)O.O=c1ncn2nc(Sc3ccc(F)cc3F)ccc2c1-c1c(Cl)cccc1Cl` [CC-6], the Solubility in data set [1] (2 mins) is 23.78 µg/mL; in data set [1] (5 mins), 39.17 µg/mL; in data set [1] (10 mins), 51.39 µg/mL; in data set [1] (15 mins), 67.49 µg/mL; in data set [1] (25 mins), 68.93 µg/mL; in data set [1] (40 mins) it was 65.28 µg/mL. Further, the Solubility in data set [1] (1 hr) was found to be 59.85 µg/mL; in data set [1] (2 hrs), 54.11 µg/mL; in data set [1] (3 hrs) it was 50.75 µg/mL; in data set [1] (4 hrs) it was 57.07 µg/mL. The results for the ending solubility in data set [2] and in data set [3] were 1.59 µg/mL and 2.38 µg/mL, respectively. For the same molecule, the results for the peak solubility in data set [2] and in data set [3] were 3.75 µg/mL and 1.87 µg/mL, respectively. Also, the Concentration in data set [3] (3 mins) is 1280 ng/mL.
In the case of `O=c1ncn2nc(Sc3ccc(F)cc3F)ccc2c1-c1c(Cl)cccc1Cl.Oc1ccccc1` [CC-11], the Solubility in data set [1] (2 mins) is 10.19 µg/mL; in data set [1] (5 mins), 57.50 µg/mL; in data set [1] (10 mins) it was 43.26 µg/mL; in data set [1] (15 mins), 36.28 µg/mL; in data set [1] (25 mins) it was 35.33 µg/mL; in data set [1] (40 mins), 21.33 µg/mL. The Solubility amounted to 15.09 µg/mL in data set [1] (1 hr), 17.11 µg/mL in data set [1] (2 hrs), 12.30 µg/mL in data set [1] (3 hrs) and 13.98 µg/mL in data set [1] (4 hrs).
On to `O=c1ncn2nc(Sc3ccc(F)cc3F)ccc2c1-c1c(Cl)cccc1Cl.[Cl][Zn][Cl]` [CC-18], for which the Concentration was determined as 23630 ng/mL in data set [2]; 88500 ng/mL in data set [3] (2 mins (Table 17)); 68530 ng/mL in data set [3] (5 mins (Table 17)); 56840 ng/mL in data set [3] (10 mins (Table 17)); 59400 ng/mL in data set [3] (15 mins (Table 17)); 47550 ng/mL in data set [3] (25 mins (Table 17)). Moreover, the Concentration in data set [3] (40 mins (Table 17)) came out at 50990 ng/mL; in data set [3] (1 hr (Table 17)), 47830 ng/mL; in data set [3] (2 hrs (Table 17)), 50170 ng/mL; in data set [3] (3 hrs (Table 17)) it was 47340 ng/mL; in data set [3] (4 hrs (Table 17)) it was 49240 ng/mL; in data set [3] (24 hrs (Table 17)), 34180 ng/mL. The ending solubility in data set [2] was 22.57 µg/mL; in data set [3], 34.18 µg/mL. Further, the peak solubility in data set [2] was 34.49 µg/mL; in data set [3], 88.50 µg/mL.
A word on the solubility: it is how much of the substance goes into solution per volume. High values mean a readily soluble substance, low ones a poorly soluble substance. For the molecule `O=c1ncn2nc(Sc3ccc(F)cc3F)ccc2c1-c1c(Cl)cccc1Cl` [VX-745, 5-(2,6-dichlorophenyl)-2-(2,4-difluorophenylthio)-6H-pyrimido[1,6-b]pyridazin-6-one], the Solubility in data set [4] (organic solvent or mixture, solvent acetone) is 7000 µg/mL (≈ 16000 µM); in data set [4] (organic solvent or mixture, solvent acetonitrile) it was 9000 µg/mL (≈ 20600 µM); in data set [4] (organic solvent or mixture, solvent ethanol) it was 2000 µg/mL (≈ 4580 µM); in data set [4] (organic solvent or mixture, solvent ethyl acetate), below 1000 µg/mL; in data set [4] (organic solvent or mixture, solvent isopropyl alcohol), 1000 µg/mL (≈ 2290 µM); in data set [4] (organic solvent or mixture, solvent methanol) it was 10000 µg/mL (≈ 22900 µM). The Solubility in data set [4] (organic solvent or mixture, solvent tetrahydrofuran (THF)) is 4000 µg/mL (≈ 9170 µM); in data set [4] (solvent water), below 1000 µg/mL. The molecule further yielded a solubility at 2 min in data set [1] (thermodynamic from solid, 2 mins) of 11.3 µg/mL (≈ 25.9 µM). For the same molecule, the solubility at 5 min in data set [1] (thermodynamic from solid, 5 mins) is 15.7 µg/mL (≈ 35.9 µM); in data set [2] (setting [5]), 17.8 µg/mL (≈ 40.8 µM). The same molecule yielded a solubility at 10 min in data set [1] (thermodynamic from solid, 10 mins) of 14.9 µg/mL (≈ 34.2 µM). The same molecule had a solubility at 15 min in data set [1] (thermodynamic from solid, 15 mins) of 17.8 µg/mL (≈ 40.8 µM). Besides, the concentration in solution in data set [1] (thermodynamic from solid, 25 mins) (solubility at 25 min) was 15.5 µg/mL (≈ 35.6 µM). Further, the concentration in solution in data set [1] (thermodynamic from solid, 40 mins) (solubility at 40 min) was 10.7 µg/mL (≈ 24.5 µM). For the same molecule, the concentration in solution in data set [1] (thermodynamic from solid, 1 hr) (solubility at 1 h) came to 6.59 µg/mL (≈ 15.1 µM). In data set [1] (thermodynamic from solid, 2 hrs), this molecule displayed a solubility at 2 h of 5.67 µg/mL (≈ 13 µM). Also, the solubility at 3 h in data set [1] (thermodynamic from solid, 3 hrs) was 6.32 µg/mL (≈ 14.5 µM); in data set [3] (setting [6]) it was 21.4 µg/mL (≈ 48.9 µM). In data set [1] (thermodynamic from solid, 4 hrs), this molecule registered a solubility at 4 h of 11.3 µg/mL (≈ 25.9 µM). The solubility at 24 h in data set [2] (setting [5]) is 9.07 µg/mL (≈ 20.8 µM); in data set [3] (setting [6]), 14 µg/mL (≈ 32.1 µM). The Concentration in data set [2] turned out to be 5810 ng/mL; in data set [3] (3 hrs), 21350 ng/mL.
